Tests used:
[1] = test system: MRC-5 cell (lung fibroblast); test: In vitro delivery of lipid nucleic acid mixture, RT-qPCR of intracellular small RNA; type: cell-based; details: for delivery of double-stranded RNA into MRC-5 cells (real-time PCR) / delivery of HJT-sRNA-m7 single-stranded RNA into MRC-5 cells (real-time PCR): single lipid; for delivery of double-stranded RNA into MRC-5 cells (real-time PCR): boiling (heating) method, FIGS. 77, 91; for delivery of HJT-sRNA-m7 single-stranded RNA into MRC-5 cells (real-time PCR): boiling method, FIGS. 78, 92, 103
Outline: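 A549 or MRC-5 cells seeded overnight, then given lipid–HJT-sRNA-m7 mixture (ether-evaporation or heated chloroform preparation) at 100 nM sRNA final for 12–24 h. After PBS washes, intracellular sRNA measured by stem-loop RT and SYBR Green qPCR; relative level by 2-ΔCt method with U6 reference.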

A549 cell line = test: Fluorescence in situ hybridization (FISH) of small RNA; type: cell-based, human; details: FIG. 12
Procedure: 3.3.3 Fluorescence in Situ Hybridization (FISH) of Small RNA
2) Fix in 4% paraformaldehyde (500 μl/well, prepared in PBS buffer) at room temperature for 20 min.
4) PBS was removed, and cells were permeabilized with PK (proteinase K) buffer at room temperature for 10 min.
9) The culture plate was placed in a hybridization cassette in hybridization buffer (50% formamide, 5×SSC, 5×Denharts, 250 μg/mL yeast RNA, 500 μg/mL herring sperm DNA) and pre-incubated at room temperature for 1 hour.
10) Add RNA probes (HJT-sRNA-m7 probe: 5′-[…]-3′ (SEQ ID NO: 27), Scrambled probe: 5′-[…]-3′ (SEQ ID NO: 28), U6 probe: 5′-TTTGCGTGTCATCCTTGCG-3′ (SEQ ID NO: 29)) to the hybridization buffer (the concentration of RNA probes was 0.1-0.2 ng/μl), denature at 85° C. for 5 min, and quickly place it on ice. […]
Mixtures of soybean PC, lipid No. 11 (18:0/18:2) and lipid No. 12 (16:0/18:2), and various small RNA(see below Table 3) were prepared by the reverse evaporation method and then added into A549 cell line (the final concentration of sRNA was 200 nM); the negative control group (control) was directly added with the same concentration of sRNA; the positive control group (RNAimax) was transfected with Lipofectamine RNAimax (transfection reagent 6 μ/well). The abundance of sRNA in the cells was detected by Taqman probe after 3 hours, and the relative expression level of sRNA was calculated by 2-ΔCt method.

Row | SMILES | amount of HJT-sRNA-m7 that entered the cells (RT-qPCR) ([1]; Example 2-1, FIG. 33, double-stranded, 100 nM, 24 hours, boiling 100° C. 30 min, No. 38 series) | delivery effect relative to that of RNAiMAX (real-time PCR) ([1]; double-stranded RNA, heating method, FIG. 91) | delivery of double-stranded RNA into MRC-5 cells (real-time PCR) [1] | delivery of HJT-sRNA-m7 single-stranded RNA into MRC-5 cells (real-time PCR) [1] | localization of delivered nucleic acid (FISH) (A549 cell line) | delivery effect relative to that of RNAiMAX (real-time PCR) ([1]; double-stranded HJT-sRNA-m7, reverse evaporation method, FIG. 77)
1 | CCCCCC/C=C\CCCCCCCC(=O)O[C@H](COC(=O)CCCCCCCCCCCCCCC)COP(=O)(O)OCCN [No. 38, (2-aminoethoxy) [(2R)-2-[(9Z)-hexadec-9-enoyloxy]-3-(hexadecanoyloxy)propoxy] phosphinic acid] | effectively delivered nucleic acids into MRC-5 cells, showing an effect close to the transfection reagent RNAiMAX | about twice | delivered double-stranded RNA into A549 and MRC-5 cells | the efficiency of delivery was much higher than that of RNAiMAX |  | 
2 | CCCCC/C=C\C/C=C\CCCCCCCC(=O)O[C@H](COC(=O)CCCCCCCCCCCCCCCCC)COP(=O)([O-])OCC[N+](C)(C)C [No. 11, trimethyl(2-{[(2R)-2-[(9Z, 12Z)-octadeca-9,12-dienoyloxy]-3-(octadecanoyloxy)propyl-phosphonato]oxy}ethyl) azanium] |  |  |  |  | entered into cytoplasm and were primarily localized in cytoplasm | 
3 | CCCCCCCCCCCCCCCCCCC[C@@H](O)[C@@H](N)CO [No. 41, Sphinganine (d22:0)] |  |  | delivered double-stranded RNA into MRC-5 cells | delivered HJT-sRNA-m7 single-stranded RNA into A549 and MRC-5 cells |  | significantly higher than that of RNAiMAX
4 | CCCCC/C=C\C/C=C\CCCCCCCC(=O)O[C@H](COC(=O)CCCCCCCCCCCCCCC)COP(=O)([O-])OCC[N+](C)(C)C [No. 12, (2-{[(2R)-3-(hexadecanoyloxy)-2-[(9Z,12Z)-octadeca-9,12-dienoyloxy]propylphosphonato]oxy}ethyl) trimethylazanium] |  |  |  |  | entered into cytoplasm and were primarily localized in cytoplasm | 
